Assay results taken from patent US10941157B2, “Pesticidal compositions and uses thereof” (Gilead Apollo, LLC, priority 2015, dated 2021).
Converted amounts (≈) assume the structure as drawn.

Tests used:
Format in all cases: cell-based
[1] = test system: Fusarium virguliforme (Fv); assay: In vitro pathogen growth inhibition assay, Fv; settings: ≥90% inhibition, 48 hours vs 2% DMSO control, read-out: Compound Concentration (ppm) sufficient for ≥90% inhibition of growth, Fv
Method in brief: (§1)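 Spores in 17% V8 liquid medium, or 1.5 mm Rs mycelial plugs in ¼ PDB, incubated with compound; final concentration checked by OD600 for precipitation. OD readings at 24 and 48 h, blank-subtracted, plus visual ratings; value is concentration giving ≥90% growth inhibition.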

[2] = test system: Septoria tritici (St); assay: In vitro pathogen growth inhibition assay, St; settings: Zymoseptoria tritici, 48 h, ≥90% inhibition; 48 hours vs 2% DMSO control; read-out: Compound Concentration (ppm) sufficient for ≥90% inhibition of growth, St
Method in brief: (§2)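 Value reported is the compound concentration reaching ≥90% growth inhibition, from OD readings at 24 and 48 h after blank subtraction, confirmed visually. Inoculum was spores diluted in 17% V8 medium, except Rs, using 1.5 mm mycelial plugs in ¼ PDB; actual compound concentration corrected via OD600.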

[3] = test system: Rhizoctonia solani (Rs); assay: In vitro pathogen growth inhibition assay, Rs (mycelial plugs); settings: Rhizoctonia solani, 48 h, ≥90% inhibition; mycelial plugs; 48 hours vs 2% DMSO control; read-out: Compound Concentration (ppm) sufficient for ≥90% inhibition of growth, Rs
Method in brief: as §1

[4] = test system: Botrtyis cinerea (Bc); assay: In vitro pathogen growth inhibition assay, Bc; settings: 48 h, ≥90% inhibition; 48 hours vs 2% DMSO control; read-out: Compound Concentration (ppm) sufficient for ≥90% inhibition of growth, Bc
Method in brief: as §2

[5] = test system: Diplodia maydis (Dm); assay: In vitro pathogen growth inhibition assay, Dm; settings: Stenocarpella maydis, 48 h, ≥90% inhibition; 48 hours vs 2% DMSO control; read-out: Compound Concentration (ppm) sufficient for ≥90% inhibition of growth, Dm
Method in brief: as §1

[6] = test system: Collectotrichum graminicola (Cg); assay: In vitro pathogen growth inhibition assay, Cg; settings: 48 h, ≥90% inhibition; 48 hours vs 2% DMSO control; read-out: Compound Concentration (ppm) sufficient for ≥90% inhibition of growth, Cg
Method in brief: as §2

[7] = test system: Phytophthora capsici (Pc); assay: In vitro pathogen growth inhibition assay, Pc; settings: 48 h, ≥90% inhibition, 48 hours vs 2% DMSO control, read-out: Compound Concentration (ppm) sufficient for ≥90% inhibition of growth, Pc
Method in brief: as §1

[8] = test system: Fusarium moniliforme (Fm); assay: In vitro pathogen growth inhibition assay, Fm; settings: Fusarium verticillioides; ≥90% inhibition; 48 hours vs 2% DMSO control; read-out: Compound Concentration (ppm) sufficient for ≥90% inhibition of growth, Fm
Method in brief: as §2

[9] = test system: Saccharomyces cerevisiae (Sc); assay: Yeast growth inhibition assay; settings: Saccharomyces cerevisiae, ≥75% inhibition, read-out: Compound Concentration (ppm) sufficient for ≥75% inhibition, Sc
Experimental: Both tables list the concentration of each compound that was sufficient to ≥90% inhibition of growth for each of the fungal pathogens listed above. In addition, some of compounds were tested in a yeast growth inhibition assay for Saccharomyces cerevisiae (Sc). Table 2 lists the concentration of the tested compound that was sufficient to ≥75% inhibition of Saccharomyces cerevisiae (Sc).

IC90 [1] [µg/mL] | IC90 [2] [µg/mL] | IC90 [3] [µg/mL] | IC90 [4] [µg/mL] | IC90 [5] [µg/mL] | IC90 [6] [µg/mL] | IC90 [7] [µg/mL] | IC90 [8] [µg/mL] | SMILES | IC75 [9] [µg/mL]
10 (≈ 18 µM) | > 50 | > 50 | 10 (≈ 18 µM) | 10 (≈ 18 µM) | 50 (≈ 90.1 µM) | > 50 | 2 (≈ 3.61 µM) | CCNC(=O)C(C)(C)n1c(=O)c2c(C)c(-c3ncco3)sc2n(C[C@H](OC(C)C)c2ccccc2OC)c1=O [Compound I-144] | 11 (≈ 19.8 µM)
2 (≈ 3.2 µM) | ≥ 10 | 50 (≈ 80 µM) | 0.4 (≈ 0.64 µM) | 2 (≈ 3.2 µM) | 10 (≈ 16 µM) | > 50 | 0.08 (≈ 0.128 µM) | COc1ccccc1[C@H](Cn1c(=O)n(C(C)(C)C(=O)NC(C)C)c(=O)c2c(C)c(-c3ncco3)sc21)O[C@H]1CC[C@@H](O)CC1 [Compound I-012] | 0.14 (≈ 0.224 µM)
50 (≈ 80.3 µM) | > 50 | 50 (≈ 80.3 µM) | 10 (≈ 16.1 µM) | 10 (≈ 16.1 µM) | 50 (≈ 80.3 µM) | > 50 | 0.4 (≈ 0.642 µM) | COc1ccccc1[C@H](Cn1c(=O)n(C(C)(C)C(=O)NC2CCC2)c(=O)c2c(C)c(-c3ncco3)sc21)OC1CCOCC1 [Compound I-099] | 33 (≈ 53 µM)
2 (≈ 3.27 µM) | 50 (≈ 81.9 µM) | 10 (≈ 16.4 µM) | 0.4 (≈ 0.655 µM) | 2 (≈ 3.27 µM) | 2 (≈ 3.27 µM) | > 50 | 0.08 (≈ 0.131 µM) | COc1ccccc1[C@H](Cn1c(=O)n(C(C)(C)C(=O)NC(C)C)c(=O)c2c(C)c(-c3ncco3)sc21)OC1CCOCC1 [Compound I-011] | 1.2 (≈ 1.96 µM)
> 50 | > 50 | > 50 | 50 (≈ 87.9 µM) | 50 (≈ 87.9 µM) | 50 (≈ 87.9 µM) | > 50 | 2 (≈ 3.52 µM) | COc1ccccc1[C@H](Cn1c(=O)n(C(C)(C)C(N)=O)c(=O)c2c(C)c(-c3ncco3)sc21)OC1CCOCC1 [Compound I-145] | > 33
10 (≈ 17.2 µM) | > 50 | 10 (≈ 17.2 µM) | 2 (≈ 3.44 µM) | 2 (≈ 3.44 µM) | 10 (≈ 17.2 µM) | > 50 | 0.4 (≈ 0.689 µM) | COc1ccccc1[C@H](Cn1c(=O)n(C(C)(C)C(=O)NC2CCC2)c(=O)c2c(C)c(-c3ncco3)sc21)OC(C)C [Compound I-098] | 11 (≈ 18.9 µM)

The next lines start with the compound.

SMILES | IC90 [1] [µg/mL] | IC90 [2] [µg/mL] | IC90 [3] [µg/mL] | IC90 [4] [µg/mL] | IC90 [5] [µg/mL] | IC90 [6] [µg/mL] | IC90 [7] [µg/mL] | IC90 [8] [µg/mL] | IC75 [9] [µg/mL]
CCOC(=O)c1sc2c(c1C)c(=O)n(C(C)(C)C(=O)N1CCCCC1)c(=O)n2C[C@H](OC(C)C)c1ccccc1OC [Compound I-006] | 0.4 (≈ 0.667 µM) | ≥ 2 | 0.4 (≈ 0.667 µM) | 0.4 (≈ 0.667 µM) | 0.4 (≈ 0.667 µM) | 0.4 (≈ 0.667 µM) | > 50 | 0.08 (≈ 0.133 µM) | 1.2 (≈ 2 µM)
CCOC(=O)c1sc2c(c1C)c(=O)n(C(C)(C)C(=O)N1CCOCC1)c(=O)n2C[C@H](OC(C)C)c1ccccc1OC [Compound I-109] | 10 (≈ 16.6 µM) | > 50 | 50 (≈ 83.1 µM) | 0.4 (≈ 0.665 µM) | 2 (≈ 3.32 µM) | 10 (≈ 16.6 µM) | > 50 | 0.4 (≈ 0.665 µM) | 11.1 (≈ 18.4 µM)
COc1ccc(F)cc1[C@H](Cn1c(=O)n(C(C)(C)C(N)=O)c(=O)c2c(C)c(-c3ncco3)sc21)OCC1CCC(=O)CC1 [Compound I-149] | 2 (≈ 3.26 µM) | > 50 | > 50 | 10 (≈ 16.3 µM) | 50 (≈ 81.6 µM) | 50 (≈ 81.6 µM) | > 50 | 2 (≈ 3.26 µM) | 11 (≈ 18 µM)
COc1ccc(F)cc1[C@H](Cn1c(=O)n(C(C)(C)C(=O)N2CCOCC2)c(=O)c2c(C)c(-n3cccn3)sc21)OC(C)C [Compound I-151] | 2 (≈ 3.26 µM) | > 50 | > 50 | 10 (≈ 16.3 µM) | 10 (≈ 16.3 µM) | 50 (≈ 81.5 µM) | > 50 | 2 (≈ 3.26 µM) | 11 (≈ 17.9 µM)
